# In ChEMBL document CHEMBL1124128, “Angiotensin-converting enzyme inhibitors. Mercaptan, carboxyalkyl dipeptide, and phosphinic acid inhibitors incorporating 4-substituted prolines” (J Med Chem, 1988):
# Biological target: T1, Angiotensin-converting enzyme (Rattus norvegicus, UniProt P47820)
# T1 sequence (P47820 whole entry): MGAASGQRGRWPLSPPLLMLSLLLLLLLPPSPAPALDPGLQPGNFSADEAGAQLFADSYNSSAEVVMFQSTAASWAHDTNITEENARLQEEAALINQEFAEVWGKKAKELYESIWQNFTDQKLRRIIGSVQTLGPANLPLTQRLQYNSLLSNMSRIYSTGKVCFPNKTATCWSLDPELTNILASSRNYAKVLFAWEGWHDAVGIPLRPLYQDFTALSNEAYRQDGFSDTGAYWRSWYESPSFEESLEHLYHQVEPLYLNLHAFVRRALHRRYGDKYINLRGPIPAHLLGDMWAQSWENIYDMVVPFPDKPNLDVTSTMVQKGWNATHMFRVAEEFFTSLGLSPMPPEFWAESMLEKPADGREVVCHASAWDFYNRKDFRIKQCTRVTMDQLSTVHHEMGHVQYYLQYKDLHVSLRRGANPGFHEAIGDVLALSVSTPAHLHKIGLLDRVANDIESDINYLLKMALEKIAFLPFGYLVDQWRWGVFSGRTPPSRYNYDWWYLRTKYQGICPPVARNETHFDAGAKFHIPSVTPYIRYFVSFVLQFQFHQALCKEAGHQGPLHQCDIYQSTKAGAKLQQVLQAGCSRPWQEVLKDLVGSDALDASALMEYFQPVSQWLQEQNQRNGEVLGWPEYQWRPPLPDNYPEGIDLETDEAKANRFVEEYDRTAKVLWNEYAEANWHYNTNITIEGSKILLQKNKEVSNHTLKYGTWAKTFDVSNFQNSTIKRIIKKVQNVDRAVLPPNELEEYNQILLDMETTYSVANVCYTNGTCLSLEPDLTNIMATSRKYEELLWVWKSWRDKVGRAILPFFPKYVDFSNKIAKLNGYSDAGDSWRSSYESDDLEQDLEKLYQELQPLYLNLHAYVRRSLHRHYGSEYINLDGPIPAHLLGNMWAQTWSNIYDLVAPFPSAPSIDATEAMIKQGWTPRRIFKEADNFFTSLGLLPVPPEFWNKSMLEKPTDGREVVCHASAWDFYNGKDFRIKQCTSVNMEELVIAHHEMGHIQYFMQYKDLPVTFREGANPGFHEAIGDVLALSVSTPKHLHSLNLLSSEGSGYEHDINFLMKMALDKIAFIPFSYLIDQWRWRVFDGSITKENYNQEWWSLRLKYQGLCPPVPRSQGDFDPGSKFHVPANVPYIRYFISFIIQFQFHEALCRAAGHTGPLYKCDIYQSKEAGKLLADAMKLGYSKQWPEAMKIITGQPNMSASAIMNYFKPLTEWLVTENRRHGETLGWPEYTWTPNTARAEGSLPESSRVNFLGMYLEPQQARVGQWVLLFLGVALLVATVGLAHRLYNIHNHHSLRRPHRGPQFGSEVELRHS
# Experiment: In vitro inhibitory activity against angiotensin I converting enzyme of rats.
# Details: read-out: I50
row,IC50 [nM],SMILES
1,11,C[C@H](CS)C(=O)N1C[C@@H](Sc2ccc(Cl)cc2)C[C@H]1C(=O)O
2,2,C[C@H](CS)C(=O)N1C[C@@H](C2CCCCC2)C[C@H]1C(=O)O
3,17,C[C@H](CS)C(=O)N1C[C@@H](Sc2ccc(F)cc2)C[C@H]1C(=O)O
4,7.2,COC1(OC)C[C@@H](C(=O)O)N(C(=O)[C@H](C)CS)C1
5,26,C[C@H](CS)C(=O)N1C[C@H](O)C[C@H]1C(=O)O
6,8,C[C@H](CS)C(=O)N1C[C@@H](Sc2ccccc2)C[C@H]1C(=O)O [ZOFENOPRILAT]
7,46,C[C@H](CS)C(=O)N1C[C@@H]([S+]([O-])c2ccccc2)C[C@H]1C(=O)O (some centres undefined)
8,28,C[C@H](CS)C(=O)N1C[C@@H](S(=O)(=O)c2ccccc2)C[C@H]1C(=O)O
9,8.6,C[C@H](CS)C(=O)N1C[C@@H](O)C[C@H]1C(=O)O
10,97,C[C@H](CS)C(=O)N1C[C@@H](Oc2ccccc2)C[C@H]1C(=O)O
11,30,C[C@H](CS)C(=O)N1C[C@@H](c2ccccc2)C[C@H]1C(=O)O
12,2.8,CO[C@H]1C[C@@H](C(=O)O)N(C(=O)[C@H](C)CS)C1
13,5,C[C@H](N[C@@H](CCc1ccccc1)C(=O)O)C(=O)N1C[C@@H](c2ccccc2)C[C@H]1C(=O)O
14,2,C[C@H]1C[C@@H](C(=O)O)N(C(=O)[C@H](C)CS)C1
15,96,C[C@H](CS)C(=O)N1C[C@@H](Sc2ccc3ccccc3c2)C[C@H]1C(=O)O
16,2.9,C[C@H](CS)C(=O)N1CC2(C[C@H]1C(=O)O)OCCO2
17,6.5,C[C@H](CS)C(=O)N1CC2(C[C@H]1C(=O)O)SCCS2
18,3,CS[C@H]1C[C@@H](C(=O)O)N(C(=O)[C@H](C)CS)C1
19,16,C[C@H](CS)C(=O)N1CC(=O)C[C@H]1C(=O)O
